From the NIST ThermoML archive (doi:10.1016/j.jct.2006.09.007)

Experiments:
[1] = molar heat capacity at constant pressure; conditions: 298.15 K; 101.33 kPa; Liquid; Flow calorimetry
[2] = 101.3 kPa, Liquid
[3] = xn = mol fraction of the nth substance listed; conditions: 101.3 kPa, Liquid

Cc1cccc(C)c1 [1,3-dimethylbenzene]
Conditions | molar heat capacity at constant pressure [J/K/mol]
[1] | 181.38

[2]
Conditions | mass density [kg/m3]
298.15 K | 859.68
308.15 K | 850.01

Cc1ccc(C)c(C)c1 [1,2,4-trimethylbenzene]
Conditions | molar heat capacity at constant pressure [J/K/mol]
[1] | 213.02

[2]
Conditions | mass density [kg/m3]
298.15 K | 871.56
308.15 K | 862.53

N#Cc1ccccc1 [benzonitrile] + Cc1cc(C)cc(C)c1
[3]
Conditions | excess molar heat capacity, 298.15 K [J/K/mol] | mass density, 298.15 K [kg/m3] | mass density, 308.15 K [kg/m3]
x1 = 0.073 | – | 869.06 | 860.02
x1 = 0.0754 | 0.726 | – | –
x1 = 0.1029 | 0.966 | – | –
x1 = 0.1412 | – | 876.92 | 867.88
x1 = 0.1917 | – | 882.87 | 873.78
x1 = 0.2104 | 1.56 | – | –
x1 = 0.283 | 1.84 | – | –
x1 = 0.2955 | – | 895.5 | 886.4
x1 = 0.3596 | – | 903.59 | 894.43
x1 = 0.381 | 2.016 | – | –
x1 = 0.4531 | – | 915.84 | 906.58
x1 = 0.4702 | 1.987 | – | –
x1 = 0.5128 | – | 923.9 | 914.75
x1 = 0.5479 | 1.864 | – | –
x1 = 0.6098 | – | 937.51 | 928.28
x1 = 0.6441 | 1.563 | – | –
x1 = 0.7005 | – | 950.89 | 941.57
x1 = 0.712 | 1.3 | – | –
x1 = 0.7895 | – | 964.64 | 955.31
x1 = 0.8092 | 0.861 | – | –
x1 = 0.879 | – | 979.23 | 969.79
x1 = 0.9041 | 0.428 | – | –
x1 = 0.9501 | 0.177 | – | –
x1 = 0.9536 | – | 991.98 | 982.49
x1 = 1 | – | 1000.25 | 990.67

N#Cc1ccccc1 [benzonitrile] + COc1ccccc1
mass density [kg/m3], [3]
Conditions | 298.15 K | 308.15 K
x1 = 0.0168 | 989.23 | 979.02
x1 = 0.0762 | 990.08 | 979.91
x1 = 0.1199 | 990.69 | 980.57
x1 = 0.2462 | 992.32 | 982.29
x1 = 0.3042 | 993.03 | 983.06
x1 = 0.3614 | 993.71 | 983.73
x1 = 0.5068 | 995.35 | 985.48
x1 = 0.5823 | 996.16 | 986.31
x1 = 0.6772 | 997.14 | 987.35
x1 = 0.7832 | 998.21 | 988.45
x1 = 0.9105 | 999.44 | 989.77
x1 = 1 | 1000.25 | 990.67
